Measurements taken from PubChem BioAssay (NCI).
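48-hour exposure; five concentrations; linearly interpolated endpoints. GI50 = concentration required for 50% inhibition of growth. Definition used: TGI = concentration required for complete inhibition of growth.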

Assays:
Assay in all cases: NCI tumour cell line growth inhibition, 48 h
ACHN renal = test system: ACHN renal
SK-OV-3 ovarian = test system: SK-OV-3 ovarian
SNB-75 CNS = test system: SNB-75 CNS
SF-539 CNS = test system: SF-539 CNS
KM12 colon = test system: KM12 colon
MOLT-4 leukemia = test system: MOLT-4 leukemia
SN12C renal = test system: SN12C renal
HL-60(TB) leukemia = test system: HL-60(TB) leukemia
OVCAR-3 ovarian = test system: OVCAR-3 ovarian
LOX IMVI melanoma = test system: LOX IMVI melanoma

Row | Compound | GI50 (ACHN renal) [µM] | TGI (ACHN renal) [µM] | GI50 (SK-OV-3 ovarian) [µM] | TGI (SK-OV-3 ovarian) [µM] | GI50 (SNB-75 CNS) [µM] | TGI (SNB-75 CNS) [µM] | GI50 (SF-539 CNS) [µM] | TGI (SF-539 CNS) [µM] | GI50 (KM12 colon) [µM] | TGI (KM12 colon) [µM] | GI50 (MOLT-4 leukemia) [µM] | TGI (MOLT-4 leukemia) [µM] | GI50 (SN12C renal) [µM] | TGI (SN12C renal) [µM] | GI50 (HL-60(TB) leukemia) [µM] | GI50 (OVCAR-3 ovarian) [µM] | TGI (OVCAR-3 ovarian) [µM] | GI50 (LOX IMVI melanoma) [µM] | TGI (LOX IMVI melanoma) [µM] | TGI (HL-60(TB) leukemia) [µM]
1 | COC(=O)[C@@]1(O)C[C@H]2O[C@]1(C)n1c3ccccc3c3c4c(c5c6ccccc6n2c5c31)C(=O)NC4 | 0.0368 | 3.07 | 0.0336 | 0.926 | 0.185 | 1.04 | 0.356 | 1.42 | 0.0269 | 1.07 | 0.0678 | 0.825 | 0.074 | 2.15 | 0.868 | 0.587 | 3.22 | 0.197 | 1.21 | 
2 | N#CC1=C(N)Oc2c(sc3c(F)cccc23)C1c1ccc(F)cc1 (centres undefined) | 0.752 | 16.1 | 1.61 | 19.7 | 0.338 | 14.9 | 0.447 | 2.67 | 0.465 | 12.8 | 0.521 | 13.3 | 1.28 | 15.8 | 0.284 | 0.363 | 1.88 | 0.727 | 12.2 | 2.74
3 | COCCNC(=O)c1ccc(-c2nc3ccc4[nH]ncc4c3c3c2CCCC3)cc1 | 1.14 | 57.7 | 0.905 | 5.59 | 2.01 | 6.24 | 1.71 | 8.01 | 0.741 | 42.5 | 1.61 | 5.62 | 2.61 | 91.7 | 2.43 | 3.85 | 37.3 | 2.88 | > 100 | 7.33
4 | [C-]#[N+]C(C)(C)C[C@H]1CC(C)C2CCC(C)C3([N+]#[C-])CCC(=C)C1[C@H]23 (some centres undefined) |  | 6.58 |  | 45.3 |  | 49.7 |  | 13.7 |  | 11.8 |  | 5.25 |  | 8.85 |  |  | 14.1 |  | 0.421 | 12.6
5 | C[C@@H]1C[C@@]2(O[C@@H]2C)C(=O)O[C@@H]2CCN3CC=C(COC(=O)[C@]1(C)O)[C@H]23 |  | > 100 |  | > 100 |  | > 100 |  | > 100 |  | > 100 |  | > 100 |  | > 100 |  |  | > 100 |  | > 100 | > 100
6 | CC(C)(c1ccc(OC#N)cc1)c1ccc(OC#N)cc1 |  | > 100 |  | > 100 |  | > 94.7 |  | > 100 |  | > 100 |  | > 100 |  | > 100 |  |  | > 100 |  | > 70.8 | > 77.7
7 | Clc1ccc2c(c1)-c1ccccc1C1=NCCN12 | 1.12 | 9.3 | 2.68 | 8.64 | 1.62 | 5.42 | 3 | 10.4 | 2.56 | 7.79 | 1.01 | 3.11 | 2.41 | 12.6 | 2.43 | 2.3 | 6.16 | 1.59 | 3.65 | 5.47
8 | COc1cc([C@@H]2OC(=O)C3C2C(=O)O[C@H]3c2cc(OC)c(OC)c(OC)c2)cc(OC)c1OC (some centres undefined) |  | > 100 |  | > 100 |  | > 100 |  | > 100 |  | > 100 |  | > 100 |  | > 100 |  |  | > 100 |  | > 100 | > 100
